Measurements as given in patent publication US11008317B2, “Triazolopyridine inhibitors of myeloperoxidase and/or EPX” (priority 2016, dated 2021).

Key:
[1] = biological target: T1, myeloperoxidase (Homo sapiens, UniProt P05164); assay: MPO Chlorination Assay (APF Assay); type: biochemical; conditions: potency range class
T1 sequence (P05164 49-745): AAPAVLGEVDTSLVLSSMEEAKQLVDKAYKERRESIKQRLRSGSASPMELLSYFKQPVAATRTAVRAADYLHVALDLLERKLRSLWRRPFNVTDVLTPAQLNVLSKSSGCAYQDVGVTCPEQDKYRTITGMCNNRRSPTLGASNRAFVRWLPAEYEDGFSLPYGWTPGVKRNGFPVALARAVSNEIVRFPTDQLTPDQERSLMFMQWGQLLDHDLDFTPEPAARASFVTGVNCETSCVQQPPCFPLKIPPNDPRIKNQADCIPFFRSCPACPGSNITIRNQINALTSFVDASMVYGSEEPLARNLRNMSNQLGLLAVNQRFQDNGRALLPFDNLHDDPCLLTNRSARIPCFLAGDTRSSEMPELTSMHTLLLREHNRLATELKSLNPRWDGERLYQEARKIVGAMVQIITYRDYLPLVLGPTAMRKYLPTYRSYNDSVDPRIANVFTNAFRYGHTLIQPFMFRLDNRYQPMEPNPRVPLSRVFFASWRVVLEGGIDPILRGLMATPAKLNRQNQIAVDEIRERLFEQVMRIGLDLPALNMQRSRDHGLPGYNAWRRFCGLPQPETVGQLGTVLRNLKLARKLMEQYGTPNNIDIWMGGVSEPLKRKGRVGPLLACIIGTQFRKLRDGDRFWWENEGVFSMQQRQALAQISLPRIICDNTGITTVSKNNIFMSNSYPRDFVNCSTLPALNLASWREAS

[2] = biological target: T1, myeloperoxidase; assay: MPO Peroxidation Assay (Amplex Red Assay); type: biochemical; conditions: potency range class
[3] = read-out: Amplex Red Assay IC50 value

| Structure (SMILES) | IC50 ([1]; read-out: APF Assay IC50 value) [µM] | IC50 [2, 3] [µM] | IC50 ([1]; APF Assay IC50 value (μM)) [µM] | IC50 ([2]; Amplex Red Assay IC50 value (μM)) [µM] |
| --- | --- | --- | --- | --- |
| Nc1cc([C@H](CCN(CC(O)C(F)(F)F)C23CCC(c4ccccc4)(CC2)CC3)c2ccccc2)c2nn[nH]c2n1 (stereo partly drawn) [Example 198, 3-{[(3R)-3-{5-amino-3H-[1,2,3]triazolo [4,5-b]pyridin-7-yl}-3-phenylpropyl]({4-phenylbicyclo[2.2.2]octan-1-yl})amino}-1,1,1-trifluoropropan-2-ol] | 0.001 to 0.1 | 0.001 to 0.1 | – | – |
| NC(=O)CN(CC[C@H](c1ccccc1)c1cc(N)nc2[nH]nnc12)C12CCC(c3ccccc3)(CC1)CC2 [Example 190, (R)-2-((3-(5-amino-3H-[1,2,3]triazolo[4,5-b]pyridin-7-yl)-3-phenylpropyl)(4-phenylbicyclo[2.2.2]octan-1-yl)amino)acetamide] | 0.001 to 0.1 | 0.101 to 0.999 | – | – |
| Nc1cc([C@H](Cc2nc3cc(F)c(-c4ccccc4)cc3[nH]2)c2ccccc2)c2nn[nH]c2n1 [Example 259, (R)-7-(2-(5-fluoro-6-phenyl-1H-benzo[d]imidazol-2-yl)-1-phenylethyl)-3H-[1,2,3]triazolo[4,5-b] pyridin-5-amine] | 0.101 to 0.999 | 0.101 to 0.999 | – | – |
| Nc1cc(C(CCCN2CCC(c3ccccc3)C2)c2ccccc2)c2nn[nH]c2n1 (stereo not shown) [Example 209, 7-[1-phenyl-4-(3-phenylpyrrolidin-1-yl)butyl]-3H-[1,2,3]triazolo [4,5-b]pyridin-5-amine] | 0.101 to 0.999 | 0.101 to 0.999 | – | – |
| Nc1cc(C(CCNC2(c3ccccc3)CCC(c3ccccc3)CC2)c2ccccc2)c2nn[nH]c2n1 (stereo not shown) [Example 144, 7-{3-[(1,4-diphenylcyclohexyl)amino]-1-phenylpropyl}-3H-[1,2,3]triazolo [4,5-b]pyridin-5-amine] | 0.101 to 0.999 | 1 to 10 | – | – |
| Nc1cc([C@H](CCNC2CC[C@H](c3ccccc3)[C@@H](O)C2)c2ccccc2)c2nn[nH]c2n1 (stereo partly drawn) [Example 183, (1S,2R)-5-{[(3R)-3-{5-amino-3H-[1,2,3]triazolo [4,5-b]pyridin-7-yl}-3-phenylpropyl]amino}-2-phenylcyclohexan-1-ol] | 0.001 to 0.1 | 1 to 10 | – | – |
| COc1ccc(CNCCC(c2ccccc2)c2cc(N)nc3[nH]nnc23)cc1 (stereo not shown) [Example 175, 7-(3-{[(4-methoxyphenyl)methyl]amino}-1-phenylpropyl)-3H-[1,2,3]triazolo [4,5-b]pyridin-5-amine] | 0.101 to 0.999 | 0.101 to 0.999 | – | – |
| Nc1cc(C(CCNC2CCC(c3cccnc3)CC2)c2ccccc2)c2nn[nH]c2n1 (stereo not shown) [Example 132, 7-(1-phenyl-3-{[4-(pyridin-3-yl)cyclohexyl]amino]propyl)-3H-[1,2,3] triazolo[4,5-b] pyridin-5-amine] | 1 to 10 | 1 to 10 | – | – |
| Nc1cc(C(CCN[C@H]2CCc3c(Cl)cccc32)c2ccccc2)c2nn[nH]c2n1 (stereo partly drawn) [Example 73, 7-(3-{[(1S)-4-chloro-2,3-dihydro-1H-inden-1-yl]amino}-1-phenylpropyl)-3H-[1,2,3]triazolo [4,5-b]pyridin-5-amine] | 0.001 to 0.1 | 1 to 10 | – | – |
| Nc1cc([C@H](CCCN2CCC(c3ccc4ccccc4c3)CC2)c2ccccc2)c2nn[nH]c2n1 [Example 218, 7-[(1R)-4-[4-(naphthalen-2-yl)piperidin-1-yl]-1-phenylbutyl]-3H-[1,2,3]triazolo[4,5-b] pyridin-5-amine] | 0.001 to 0.1 | 0.101 to 0.999 | – | – |
| N#Cc1ccc(-c2ccc3nc(C[C@H](c4ccccc4)c4cc(N)nc5[nH]nnc45)[nH]c3c2)cc1 [Example 255, (R)-4-(2-(2-(5-amino-3H-[1,2,3]triazolo[4,5-b]pyridin-7-yl)-2-phenylethyl)-1H-benzo[d]imidazol-6-yl)benzonitrile] | 0.001 to 0.1 | 1 to 10 | – | – |
| Cc1cccc(C)c1CNCCC(c1ccccc1)c1cc(N)nc2[nH]nnc12 (stereo not shown) [Example 27, 7-(3-{[(2,6-dimethylphenyl)methyl]amino}-1-phenylpropyl)-3H-[1,2,3]triazolo[4,5-b] pyridin-5-amine] | 0.101 to 0.999 | 0.101 to 0.999 | – | – |
| Nc1cc(C(CCNCc2ccc(C(F)(F)F)cc2)c2ccccc2)c2nn[nH]c2n1 (stereo not shown) [Example 54, 7-[1-phenyl-3-({[4-(trifluoromethyl)phenyl]methyl}amino)propyl]-3H-[1,2,3]triazolo[4,5-b]pyridin-5-amine] | 0.101 to 0.999 | 0.101 to 0.999 | – | – |
| CC1(C)C[C@@H](NCCC(c2ccccc2)c2cc(N)nc3[nH]nnc23)c2ccccc21 (stereo partly drawn) [Example 85, 7-(3-{[(1R)-3,3-dimethyl-2,3-dihydro-1H-inden-1-yl]amino}-1-phenylpropyl)-3H-[1,2,3]triazolo [4,5-b]pyridin-5-amine] | 0.001 to 0.1 | 0.101 to 0.999 | – | – |
| Nc1cc(C(CCCN2CCCC(c3ccccc3)CC2)c2ccccc2)c2nn[nH]c2n1 (stereo not shown) [Example 212, 7-[1-phenyl-4-(4-phenylazepan-1-yl)butyl]-3H-[1,2,3] triazolo[4,5-b] pyridin-5-amine] | 0.001 to 0.1 | 0.101 to 0.999 | – | – |
| Nc1cc([C@H](Cc2nc3ccc(-c4ccccc4)cc3[nH]2)c2ccccc2)c2nn[nH]c2n1 [Example 256, (R)-7-(1-phenyl-2-(6-phenyl-1H-benzo[d]imidazol-2-yl)ethyl)-3H-[1,2,3]triazolo [4,5-b]pyridin-5-amine] | 0.101 to 0.999 | 0.101 to 0.999 | – | – |
| Nc1cc(C(CCNC(Cc2ccccc2)c2ccccc2)c2ccccc2)c2nn[nH]c2n1 (stereo not shown) [Example 45, 7-{3-[(1,2-diphenylethyl)amino]-1-phenylpropyl}-3H-[1,2,3]triazolo[4,5-b] pyridin-5-amine] | 0.101 to 0.999 | 0.101 to 0.999 | – | – |
| COc1ccc2c(c1)CC[C@H]2NCCC(c1ccccc1)c1cc(N)nc2[nH]nnc12 (stereo partly drawn) [Example 121, 7-(3-{[(1R)-5-methoxy-2,3-dihydro-1H-inden-1-yl]amino}-1-phenylpropyl)-3H-[1,2,3]triazolo[4,5-b]pyridin-5-amine] | 0.101 to 0.999 | 0.101 to 0.999 | – | – |
| Nc1cc(C(CCNC2CCC(Cc3ccccc3)(c3ccccc3)CC2)c2ccccc2)c2nn[nH]c2n1 (stereo not shown) [Example 126, 7-{3-[(4-benzyl-4-phenylcyclohexyl)amino]-1-phenylpropyl}-3H-[1,2,3]triazolo[4,5-b]pyridin-5-amine] | 0.001 to 0.1 | 1 to 10 | – | – |
| Nc1cc(C(CCN[C@H]2CC[C@@H](c3ccc(=O)[nH]c3)CC2)c2ccccc2)c2nn[nH]c2n1 (stereo partly drawn) [Example 133, 5-[(cis)-4-[(3-{5-amino-3H-[1,2,3]triazolo[4,5-b]pyridin-7-yl}-3-phenylpropyl)amino]cyclohexyl]-1,2-dihydropyridin-2-one] | 0.101 to 0.999 | 0.101 to 0.999 | – | – |
| NC(=O)c1ccc(C2CCC(NCCC(c3ccccc3)c3cc(N)nc4[nH]nnc34)CC2)cc1 (stereo not shown) [Example 117, 4-{4-[(3-{5-amino-3H-[1,2,3]triazolo [4,5-b]pyridin-7-yl}-3-phenylpropyl)amino]cyclohexyl} benzamide] | 0.001 to 0.1 | 0.101 to 0.999 | – | – |
| Nc1cc(C(CCNC2CCC(c3cccc(Cl)c3)CC2)c2ccccc2)c2nn[nH]c2n1 (stereo not shown) [Example 105, 7-(3-{[4-(3-chlorophenyl)cyclohexyl]amino}-1-phenylpropyl)-3H-[1,2,3]triazolo[4,5-b]pyridin-5-amine] | 0.001 to 0.1 | 1 to 10 | – | – |
| N#Cc1ccc(C(CCN[C@H]2CC[C@H](c3ccccc3)CC2)c2cc(N)nc3[nH]nnc23)cc1 (stereo partly drawn) [Example 159, 4-(1-{5-amino-3H-[1,2,3]triazolo [4,5-b]pyridin-7-yl}-3-{[(trans)-4-phenylcyclohexyl]amino}propyl) benzonitrile] | 1 to 10 | 0.101 to 0.999 | – | – |
| Nc1cc(C(CCNC2(c3ccccc3)CCCCC2)c2ccccc2)c2nn[nH]c2n1 (stereo not shown) [Example 128, 7-{1-phenyl-3-[(1-phenylcyclohexyl)amino]propyl}-3H-[1,2,3]triazolo [4,5-b]pyridin-5-amine] | – | – | 0.001 to 0.1 | 1 to 10 |
| Nc1cc(C(Cc2ccc(O)cc2)c2ccccc2)c2nn[nH]c2n1 (stereo not shown) [Example 229, 4-(2-(5-amino-3H-[1,2,3]triazolo[4,5-b]pyridin-7-yl)-2-phenylethyl)phenol] | 0.101 to 0.999 | 0.001 to 0.1 | – | – |
| Nc1cc([C@H](Cc2nc3ccc(-c4ccccc4)cc3c(=O)[nH]2)c2ccccc2)c2nn[nH]c2n1 [Example 241] | 0.001 to 0.1 | 0.101 to 0.999 | – | – |
| Nc1cc(C(CCNC2CCC(c3ccccc3)(c3ccccc3)CC2)c2ccccc2)c2nn[nH]c2n1 (stereo not shown) [Example 127, 7-{3-[(4,4-diphenylcyclohexyl)amino]-1-phenylpropyl}-3H-[1,2,3]triazolo[4,5-b]pyridin-5-amine] | 0.001 to 0.1 | 1 to 10 | – | – |
| Nc1cc([C@H](CCCN2CCC(c3cccc(C(F)(F)F)c3)C(O)C2)c2ccccc2)c2nn[nH]c2n1 (stereo partly drawn) [Example 220, 1-[(4R)-4-{5-amino-3H-[1,2,3]triazolo [4,5-b]pyridin-7-yl}-4-phenylbutyl]-4-[3-(trifluoromethyl)phenyl]piperidin-3-ol] | 0.101 to 0.999 | 0.101 to 0.999 | – | – |
| Nc1cc(C(CCNC2CC3CCC(C2)C3c2ccccc2)c2ccccc2)c2nn[nH]c2n1 (stereo not shown) [Example 149, 7-[1-phenyl-3-({8-phenylbicyclo[3.2.1]octan-3-yl}amino)propyl]-3H-[1,2,3]triazolo[4,5-b] pyridin-5-amine] | 0.101 to 0.999 | 1 to 10 | – | – |
